The source made the active and inactive calls.
Key:
[1] = target: Mitogen-activated protein kinase 10 (Homo sapiens, UniProt P53779); assay: Dose response biochemical screening assay for inhibitors of c-Jun N-Terminal Kinase 3 (JNK3). [Related pubchem assays: 746 ]
[2] = HIV-1 Vif–A3G interaction blockers – biochemical, TR-FRET, GST-Vif 1-94, biotin-A3G peptide, dose response retest, primary screen (AID 1117319); type: functional;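 note: TR-FRET signal of purified GST-Vif binding a biotinylated A3G peptide; inhibitors lower the FRET signal by blocking Vif and A3G binding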
cells [3] = type: functional, cell-based
cells [4] = type: functional, cell-based; remark: listed apart in the source
[5] = Trypanosoma cruzi growth suppression in host cells – NIH3T3 host cells, beta-gal luminescence, confirmation (AID 2044); type: functional, cell-based;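 note: intracellular parasites grown in NIH/3T3 mouse fibroblasts as host cells; luminescent beta-galactosidase reporter signal from transgenic T. cruzi replicating inside host cells; inhibitors lower the luminescence signal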
[6] = NIH3T3 cell viability loss – ATP luminescence, mouse fibroblasts, counter-screen, dose response (AID 2010); type: functional, cell-based;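 note: cells exposed to compound for about 90 hours before reading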
[7] = target: Eukaryotic translation initiation factor 4E (Mus musculus, UniProt P63073); assay: blockers of eIF4G binding by eIF4E – biochemical, TR-FRET, dose response (AID 855); type: functional;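 note: potency for disrupting eIF4E binding to eIF4GI seen as loss of FRET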
Eukaryotic translation initiation factor 4E, sequence (P63073 whole entry): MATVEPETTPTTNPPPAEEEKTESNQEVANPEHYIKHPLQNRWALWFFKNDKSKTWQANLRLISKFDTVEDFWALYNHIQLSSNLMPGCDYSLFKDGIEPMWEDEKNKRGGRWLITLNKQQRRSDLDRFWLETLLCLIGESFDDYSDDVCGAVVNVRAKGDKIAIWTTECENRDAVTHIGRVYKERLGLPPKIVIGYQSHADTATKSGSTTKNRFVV

[8] = target: T1, DNA repair protein RAD52 homolog (Homo sapiens, UniProt P43351); type: functional, biochemical
T1 sequence (P43351 whole entry): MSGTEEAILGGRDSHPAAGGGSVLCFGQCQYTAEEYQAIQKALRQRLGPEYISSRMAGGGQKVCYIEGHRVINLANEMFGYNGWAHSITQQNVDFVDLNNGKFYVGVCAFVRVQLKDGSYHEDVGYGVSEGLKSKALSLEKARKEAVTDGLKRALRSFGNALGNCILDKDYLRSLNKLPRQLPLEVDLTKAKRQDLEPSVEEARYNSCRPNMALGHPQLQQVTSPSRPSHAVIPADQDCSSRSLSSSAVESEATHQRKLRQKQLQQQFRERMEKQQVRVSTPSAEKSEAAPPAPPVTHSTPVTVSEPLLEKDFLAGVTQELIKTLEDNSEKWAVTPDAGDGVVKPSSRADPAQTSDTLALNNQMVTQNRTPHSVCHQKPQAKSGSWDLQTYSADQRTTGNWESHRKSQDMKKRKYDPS

[9] = Luminescence Cell-Based Dose Confirmation HTS to Identify Activators of 5'UTR Stem-Loop Driven Alpha-Synuclein mRNA Translation in H4 Neuroglioblastoma Cells. [Related pubchem assays: 1829 (Project Summary), 1814 (Primary HTS)]; type: functional
[10] = Luminescence Cell-Based Dose Response HTS to Identify Activators of Luciferase Translation or Activity in H4 […] Cells. [Related pubchem assays: 1829 (Project Summary), 1814 (Primary HTS)]; type: functional
H4 = assay: Luminescence Cell-Based Dose Response HTS to Identify Activators of 5'UTR Stem-Loop Driven Prion Protein mRNA Translation in H4 Neuroglioblastoma Cells. [Related pubchem assays: 1829 (Project Summary), 1814 (Primary HTS)]; type: functional; details: Homo sapiens
[11] = target: Peroxisome proliferator-activated receptor gamma/Nuclear receptor coactivator 2 (Homo sapiens, UniProt P37231); type: functional;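 note: agonist potency for raising coactivator recruitment to the receptor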
[12] = target: Peroxisome proliferator-activated receptor gamma/Nuclear receptor coactivator 1 (Homo sapiens, UniProt P37231); type: functional;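 note: agonist potency as compounds enhance coactivator SRC-1 recruitment to PPARgamma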
Peroxisome proliferator-activated receptor gamma/Nuclear receptor coactivator 1, sequence (P37231 whole entry): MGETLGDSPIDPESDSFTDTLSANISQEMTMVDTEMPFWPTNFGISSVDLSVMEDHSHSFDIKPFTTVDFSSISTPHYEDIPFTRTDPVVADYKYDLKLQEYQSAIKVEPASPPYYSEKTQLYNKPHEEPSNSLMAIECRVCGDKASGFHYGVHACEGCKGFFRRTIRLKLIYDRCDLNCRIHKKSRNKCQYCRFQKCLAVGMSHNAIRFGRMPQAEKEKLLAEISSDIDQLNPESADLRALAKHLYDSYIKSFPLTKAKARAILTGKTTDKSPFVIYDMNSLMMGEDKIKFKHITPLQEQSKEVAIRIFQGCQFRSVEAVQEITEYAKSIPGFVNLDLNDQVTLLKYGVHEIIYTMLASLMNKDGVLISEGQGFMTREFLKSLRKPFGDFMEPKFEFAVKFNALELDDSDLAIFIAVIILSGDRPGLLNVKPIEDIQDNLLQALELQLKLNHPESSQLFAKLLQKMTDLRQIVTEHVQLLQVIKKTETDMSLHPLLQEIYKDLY
Peroxisome proliferator-activated receptor gamma/Nuclear receptor coactivator 1, sequence (Q15788 whole entry, further chain): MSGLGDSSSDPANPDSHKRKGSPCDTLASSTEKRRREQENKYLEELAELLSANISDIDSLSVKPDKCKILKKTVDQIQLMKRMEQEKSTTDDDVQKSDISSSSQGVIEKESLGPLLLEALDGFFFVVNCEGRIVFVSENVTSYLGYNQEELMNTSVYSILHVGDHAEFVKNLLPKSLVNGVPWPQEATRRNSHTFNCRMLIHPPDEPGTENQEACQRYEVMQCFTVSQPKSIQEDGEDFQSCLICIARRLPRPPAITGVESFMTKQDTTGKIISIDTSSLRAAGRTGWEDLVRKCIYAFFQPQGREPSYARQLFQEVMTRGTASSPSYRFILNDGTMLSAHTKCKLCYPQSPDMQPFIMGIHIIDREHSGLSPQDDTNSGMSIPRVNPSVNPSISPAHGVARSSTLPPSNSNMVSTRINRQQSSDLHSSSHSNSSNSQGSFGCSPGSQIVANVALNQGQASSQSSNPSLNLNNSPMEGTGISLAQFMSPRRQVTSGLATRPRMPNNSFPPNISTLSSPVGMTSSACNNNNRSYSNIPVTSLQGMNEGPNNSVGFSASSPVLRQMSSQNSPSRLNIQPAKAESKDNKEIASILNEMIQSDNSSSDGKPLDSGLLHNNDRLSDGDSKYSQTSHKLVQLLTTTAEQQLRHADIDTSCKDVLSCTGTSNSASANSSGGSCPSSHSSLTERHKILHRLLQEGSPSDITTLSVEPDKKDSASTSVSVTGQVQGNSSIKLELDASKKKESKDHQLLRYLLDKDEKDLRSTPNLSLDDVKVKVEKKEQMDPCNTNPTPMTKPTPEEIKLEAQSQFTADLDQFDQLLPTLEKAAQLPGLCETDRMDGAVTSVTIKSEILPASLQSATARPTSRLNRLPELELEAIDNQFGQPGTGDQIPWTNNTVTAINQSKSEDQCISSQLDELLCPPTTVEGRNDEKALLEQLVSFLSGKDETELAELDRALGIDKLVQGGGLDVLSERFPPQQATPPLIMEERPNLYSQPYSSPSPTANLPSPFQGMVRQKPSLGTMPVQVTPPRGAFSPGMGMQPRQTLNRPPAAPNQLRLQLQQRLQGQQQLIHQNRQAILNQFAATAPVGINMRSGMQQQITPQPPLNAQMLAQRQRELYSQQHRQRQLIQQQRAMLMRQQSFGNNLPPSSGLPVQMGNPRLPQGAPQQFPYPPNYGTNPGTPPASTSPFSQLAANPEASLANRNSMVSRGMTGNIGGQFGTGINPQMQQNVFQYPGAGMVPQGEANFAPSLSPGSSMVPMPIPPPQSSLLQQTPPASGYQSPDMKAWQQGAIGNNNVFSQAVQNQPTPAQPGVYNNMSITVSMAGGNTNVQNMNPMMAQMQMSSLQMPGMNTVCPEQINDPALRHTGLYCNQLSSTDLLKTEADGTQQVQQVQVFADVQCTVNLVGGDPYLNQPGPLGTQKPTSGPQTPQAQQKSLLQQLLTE

[13] = target: Peroxisome proliferator-activated receptor gamma/Nuclear receptor coactivator 3 (Homo sapiens, UniProt P37231); type: functional;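 note: agonist potency for raising coactivator recruitment to the receptor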
Peroxisome proliferator-activated receptor gamma/Nuclear receptor coactivator 3, sequence (P37231 whole entry): as the sequence (P37231 whole entry) above
Peroxisome proliferator-activated receptor gamma/Nuclear receptor coactivator 3, sequence (Q9Y6Q9 whole entry, further chain): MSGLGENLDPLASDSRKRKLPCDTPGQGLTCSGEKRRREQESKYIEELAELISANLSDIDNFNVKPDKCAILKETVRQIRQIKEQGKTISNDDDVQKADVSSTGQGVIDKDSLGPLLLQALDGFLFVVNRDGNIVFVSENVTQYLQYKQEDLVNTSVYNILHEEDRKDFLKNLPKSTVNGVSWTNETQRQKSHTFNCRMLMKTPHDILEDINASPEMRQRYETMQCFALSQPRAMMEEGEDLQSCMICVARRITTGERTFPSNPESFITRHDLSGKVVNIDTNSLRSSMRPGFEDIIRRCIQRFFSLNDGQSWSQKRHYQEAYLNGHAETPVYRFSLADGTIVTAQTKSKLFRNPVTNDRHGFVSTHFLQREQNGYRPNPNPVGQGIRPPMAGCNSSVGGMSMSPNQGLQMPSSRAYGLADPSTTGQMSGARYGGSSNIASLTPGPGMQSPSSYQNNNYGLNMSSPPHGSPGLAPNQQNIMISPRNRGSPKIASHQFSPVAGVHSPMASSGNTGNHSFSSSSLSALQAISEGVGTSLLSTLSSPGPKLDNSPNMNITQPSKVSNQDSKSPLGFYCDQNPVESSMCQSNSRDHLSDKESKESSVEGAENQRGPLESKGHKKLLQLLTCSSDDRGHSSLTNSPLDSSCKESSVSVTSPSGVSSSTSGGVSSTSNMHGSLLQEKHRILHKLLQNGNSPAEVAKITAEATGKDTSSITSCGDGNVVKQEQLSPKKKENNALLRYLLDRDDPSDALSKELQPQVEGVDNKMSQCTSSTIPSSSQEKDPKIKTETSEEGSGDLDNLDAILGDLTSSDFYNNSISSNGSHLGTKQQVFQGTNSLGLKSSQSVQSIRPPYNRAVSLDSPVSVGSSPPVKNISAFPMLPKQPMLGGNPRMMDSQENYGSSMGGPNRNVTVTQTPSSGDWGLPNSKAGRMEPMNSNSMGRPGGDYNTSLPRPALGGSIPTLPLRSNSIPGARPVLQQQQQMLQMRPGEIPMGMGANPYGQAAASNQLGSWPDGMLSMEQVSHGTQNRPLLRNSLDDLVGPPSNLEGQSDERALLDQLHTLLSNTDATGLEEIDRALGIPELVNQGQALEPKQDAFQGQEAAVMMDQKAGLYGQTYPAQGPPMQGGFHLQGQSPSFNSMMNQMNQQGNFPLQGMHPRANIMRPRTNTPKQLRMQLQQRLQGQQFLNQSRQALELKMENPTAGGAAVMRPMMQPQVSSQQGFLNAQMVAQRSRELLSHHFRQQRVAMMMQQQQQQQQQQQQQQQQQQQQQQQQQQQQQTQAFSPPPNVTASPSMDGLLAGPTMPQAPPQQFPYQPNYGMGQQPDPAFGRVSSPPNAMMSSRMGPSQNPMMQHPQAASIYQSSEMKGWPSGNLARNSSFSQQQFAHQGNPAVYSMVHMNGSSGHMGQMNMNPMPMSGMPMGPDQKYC

[14] = target: T2, Corticotropin-releasing factor receptor 2/Corticotropin-releasing factor-binding protein (Homo sapiens, UniProt P24387+Q13324); assay: Dose Response confirmation of uHTS hits for small molecule antagonists of the CRF-binding protein and CRF-R2 receptor complex.; type: functional; details: read-out: IC50_Mean
T2 sequence (Q13324 whole entry): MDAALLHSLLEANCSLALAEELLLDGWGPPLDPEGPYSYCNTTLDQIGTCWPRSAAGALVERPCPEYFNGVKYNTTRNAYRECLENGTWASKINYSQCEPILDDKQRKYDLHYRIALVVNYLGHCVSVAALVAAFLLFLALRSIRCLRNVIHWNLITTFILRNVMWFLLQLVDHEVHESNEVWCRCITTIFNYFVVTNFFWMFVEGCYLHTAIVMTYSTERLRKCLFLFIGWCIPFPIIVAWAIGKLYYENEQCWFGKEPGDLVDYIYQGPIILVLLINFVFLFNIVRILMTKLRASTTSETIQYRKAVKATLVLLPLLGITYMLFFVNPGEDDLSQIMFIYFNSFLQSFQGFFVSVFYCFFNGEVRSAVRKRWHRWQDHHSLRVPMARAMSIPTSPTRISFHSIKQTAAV
T2 sequence (P24387 whole entry): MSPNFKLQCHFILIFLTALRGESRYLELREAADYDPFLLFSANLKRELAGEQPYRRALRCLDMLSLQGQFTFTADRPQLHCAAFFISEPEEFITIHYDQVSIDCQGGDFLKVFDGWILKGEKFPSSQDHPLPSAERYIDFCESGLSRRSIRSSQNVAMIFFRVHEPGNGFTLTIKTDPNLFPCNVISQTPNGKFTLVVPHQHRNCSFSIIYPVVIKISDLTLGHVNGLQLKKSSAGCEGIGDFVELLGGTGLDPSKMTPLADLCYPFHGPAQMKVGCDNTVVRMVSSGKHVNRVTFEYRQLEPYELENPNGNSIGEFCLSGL

[15] = target: T2, Corticotropin-releasing factor receptor 2/Corticotropin-releasing factor-binding protein; assay: activators of CRF receptor 2 with binding protein – uHTS hits, confirmation (AID 602473); type: functional; details: read-out: EC50_Mean
[16] = blockers of CRF-binding protein–CRF-R2 complex – cell-based, uHTS hits, 384-well, dose response (AID 651639); type: functional, Homo sapiens; details: read-out: IC50_Mean
[17] = target: T3, Rac GTPase-activating protein 1 (Homo sapiens, UniProt Q9H0H5); assay: blockers of MgcRacGAP-driven Rac1 GTP hydrolysis – biochemical, ADP Hunter fluorescence, primary and confirmatory, confirmation (AID 624330); type: functional
T3 sequence (Q9H0H5 whole entry): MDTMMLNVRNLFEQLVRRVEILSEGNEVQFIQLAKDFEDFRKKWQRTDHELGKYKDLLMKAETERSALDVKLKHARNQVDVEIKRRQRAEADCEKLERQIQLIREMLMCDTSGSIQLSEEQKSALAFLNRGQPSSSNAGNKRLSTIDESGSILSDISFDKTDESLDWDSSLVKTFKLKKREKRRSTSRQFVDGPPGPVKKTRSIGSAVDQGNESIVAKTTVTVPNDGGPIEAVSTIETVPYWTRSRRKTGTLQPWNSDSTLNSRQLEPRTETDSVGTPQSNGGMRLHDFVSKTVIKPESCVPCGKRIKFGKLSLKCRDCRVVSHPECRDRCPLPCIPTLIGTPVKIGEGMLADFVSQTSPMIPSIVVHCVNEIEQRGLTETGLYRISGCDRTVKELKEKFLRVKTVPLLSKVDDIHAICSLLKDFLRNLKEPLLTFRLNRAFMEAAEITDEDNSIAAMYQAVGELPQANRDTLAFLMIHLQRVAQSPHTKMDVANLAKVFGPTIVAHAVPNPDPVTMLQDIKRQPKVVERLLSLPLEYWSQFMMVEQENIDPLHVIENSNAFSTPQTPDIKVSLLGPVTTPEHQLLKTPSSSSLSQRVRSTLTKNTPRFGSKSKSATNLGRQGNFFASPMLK

[18] = target: T4, Short transient receptor potential channel 4 (Mus musculus, UniProt Q9QUQ5); assay: calcium entry via TRPC4 opening agents – cell-based, HEK293 TRPC4/mu-opioid, Fluo-4 calcium, dose response (AID 434937); type: functional
T4 sequence (Q9QUQ5 whole entry): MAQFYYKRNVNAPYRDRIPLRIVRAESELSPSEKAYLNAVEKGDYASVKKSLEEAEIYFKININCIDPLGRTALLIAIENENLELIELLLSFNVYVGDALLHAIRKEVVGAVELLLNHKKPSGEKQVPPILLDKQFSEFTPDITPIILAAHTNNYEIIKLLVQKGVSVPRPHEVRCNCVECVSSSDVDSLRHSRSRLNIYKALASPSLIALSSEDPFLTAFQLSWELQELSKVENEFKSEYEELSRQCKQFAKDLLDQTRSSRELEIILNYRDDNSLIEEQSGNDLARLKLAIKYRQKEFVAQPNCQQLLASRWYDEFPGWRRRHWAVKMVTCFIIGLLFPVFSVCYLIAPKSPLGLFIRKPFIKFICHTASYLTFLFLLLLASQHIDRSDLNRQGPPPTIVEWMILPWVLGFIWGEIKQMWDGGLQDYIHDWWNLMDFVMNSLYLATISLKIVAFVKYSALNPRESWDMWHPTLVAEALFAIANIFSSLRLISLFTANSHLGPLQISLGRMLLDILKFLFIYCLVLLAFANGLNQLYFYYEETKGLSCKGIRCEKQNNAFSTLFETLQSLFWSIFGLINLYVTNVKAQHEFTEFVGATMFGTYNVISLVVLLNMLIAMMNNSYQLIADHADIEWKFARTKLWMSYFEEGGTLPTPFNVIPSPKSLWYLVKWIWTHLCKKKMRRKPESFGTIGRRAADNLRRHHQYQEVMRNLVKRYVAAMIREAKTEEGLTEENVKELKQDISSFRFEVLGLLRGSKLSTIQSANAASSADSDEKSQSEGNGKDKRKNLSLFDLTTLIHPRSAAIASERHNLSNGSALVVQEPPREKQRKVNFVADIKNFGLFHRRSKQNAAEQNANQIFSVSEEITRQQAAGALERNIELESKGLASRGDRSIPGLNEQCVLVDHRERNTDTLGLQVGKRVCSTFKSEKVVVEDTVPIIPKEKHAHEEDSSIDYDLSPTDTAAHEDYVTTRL

Cytochrome P450 2C19 = Cytochrome P450 2C19 (Homo sapiens, UniProt P33261); assay: Cytochrome panel assay with activity outcomes. Panel member name: p450-cyp2c19 Compounds with AC50 equal or less than 10 uM are considered active; type: functional
[19] = target: T5, Calpain-2 catalytic subunit (Sus scrofa, UniProt P43367); assay: m-calpain protease blockers, concentration series – biochemical, fluorogenic peptide substrate, dose response (AID 1420); type: functional
T5 sequence (P43367 whole entry): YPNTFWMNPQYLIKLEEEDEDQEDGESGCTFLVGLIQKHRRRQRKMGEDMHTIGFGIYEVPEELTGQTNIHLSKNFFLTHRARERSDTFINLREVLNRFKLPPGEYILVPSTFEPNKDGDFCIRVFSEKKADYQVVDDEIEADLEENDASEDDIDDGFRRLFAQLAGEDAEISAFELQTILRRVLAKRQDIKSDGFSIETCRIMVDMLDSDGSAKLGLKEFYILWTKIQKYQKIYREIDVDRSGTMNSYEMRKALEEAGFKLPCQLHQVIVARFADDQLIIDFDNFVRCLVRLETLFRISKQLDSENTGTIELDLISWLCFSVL

Vero = assay: viability of Vero cells under compound – cytotoxicity control for flavivirus capping enzyme inhibitors (AID 588742); type: functional; details: Chlorocebus sabaeus
[20] = target: T6, Probable nicotinate-nucleotide adenylyltransferase (Staphylococcus aureus (strain N315), UniProt P65502); type: functional, Staphylococcus aureus subsp. aureus N315;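 for IC50 Mean: confirmatory dose-response retesting of NadD inhibitor hits first found in an ultra-high-throughput screen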
T6 sequence (P65502 whole entry): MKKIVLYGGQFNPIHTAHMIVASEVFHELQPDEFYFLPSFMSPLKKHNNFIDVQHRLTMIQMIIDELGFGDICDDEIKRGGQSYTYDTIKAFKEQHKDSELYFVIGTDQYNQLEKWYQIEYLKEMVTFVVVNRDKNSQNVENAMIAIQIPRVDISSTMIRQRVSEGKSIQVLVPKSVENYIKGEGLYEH

[21] = target: T6, Probable nicotinate-nucleotide adenylyltransferase; type: functional, Staphylococcus aureus subsp. aureus N315; details: read-out: IC50_Mean
H9c2 = assay: cells; type: functional, cell-based; details: Rattus norvegicus, H9c2, Myocardium;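 note: confirmatory concentration-response retest of ultra-high-throughput screening hits for modulation of myocardial damage; cell death induced by hydrogen peroxide oxidative stress; compound pretreatment for 60 min then peroxide exposure for 2 h; potency is for protecting the cells against peroxide damage rather than for killing them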

Mitogen-activated protein kinase 10, sequence (P53779 whole entry): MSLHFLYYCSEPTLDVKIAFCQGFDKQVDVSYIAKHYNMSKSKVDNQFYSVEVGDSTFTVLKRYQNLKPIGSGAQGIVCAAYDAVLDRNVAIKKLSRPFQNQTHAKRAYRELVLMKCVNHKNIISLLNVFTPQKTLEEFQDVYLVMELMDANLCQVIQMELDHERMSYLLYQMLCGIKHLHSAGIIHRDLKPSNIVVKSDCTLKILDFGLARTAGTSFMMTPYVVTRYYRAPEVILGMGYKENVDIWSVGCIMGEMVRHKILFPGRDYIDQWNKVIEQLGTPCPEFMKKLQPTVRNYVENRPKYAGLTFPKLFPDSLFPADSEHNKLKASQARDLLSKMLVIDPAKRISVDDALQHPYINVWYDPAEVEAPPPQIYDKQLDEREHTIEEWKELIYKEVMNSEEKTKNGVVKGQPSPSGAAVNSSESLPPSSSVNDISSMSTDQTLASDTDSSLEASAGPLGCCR

SMILES: COc1ccc(COC(=O)c2[nH]nc3ccccc23)cc1F
- IC50 [1]: 11.4 µM (not active)

SMILES: O=C(N/C(=C/c1ccc(Cl)cc1)c1nc2ccccc2[nH]1)c1ccco1
- IC50 [2]: > 100 µM (active)

SMILES: O=C(N[C@H](C(=O)N1CCC[C@H]1C(=O)NCCc1ccccc1Cl)c1ccccc1)c1cccs1
- IC50 (cells [3]): > 29.9 µM (inactive)
- EC50 (cells [4]): > 29.9 µM (inactive)

SMILES: CN1CCN(CCCNC(=O)c2ccc(/C=C3\Sc4ccccc4N(Cc4ccccc4F)C3=O)cc2)CC1
- EC50 [5]: 0.3 µM (active)
- EC50 [6]: 6.91 µM (active)
- IC50 [7]: 50 µM (inactive)
- AC50 [8]: 5.23 µM (active)

SMILES: Cc1ccc(-c2csc(NC(=O)Cc3cccs3)n2)cc1C
- EC50 [9]: 10.2 µM (active)
- EC50 [10]: 28.7 µM (active)
- EC50 (H4): 15.1 µM (active)
- IC50 [2]: > 100 µM (active)

SMILES: COc1ccccc1OCc1nc2ccccc2[nH]1
- EC50 [11]: > 79.4 µM (not active)
- EC50 [12]: > 79.4 µM (not active)
- EC50 [13]: > 79.4 µM (not active)

SMILES: COc1cc(C=C2C(=O)c3ccccc3C2=O)cc(OC)c1OC
- IC50 [14]: 1.59 µM (active)
- EC50 [15]: > 53 µM (inactive)
- IC50 [16]: 1.46 µM (active)
- IC50 [17]: 126 µM (active)

SMILES: Cc1sc(NC(=O)c2ccccc2)c(C(=O)NCCN(C)C)c1C
- EC50 [18]: 3.35 µM (active)
- AC50 (Cytochrome P450 2C19): inconclusive
- IC50 [2]: > 100 µM (active)

SMILES: COc1cc2c(cc1OC)CN1CCc3cc(OC)c(OC)cc3C1C2 (configuration not stated)
- AC50 [8]: 4.49 µM (active)

SMILES: O=C(C1=C[C@@H](c2ccc(C(F)(F)F)cc2)C[C@@H](OCc2ccc(CO)cc2)O1)N1CCOCC1
- EC50 [11]: > 79.4 µM (not active)
- EC50 [12]: > 79.4 µM (not active)
- EC50 [13]: > 79.4 µM (not active)

SMILES: CC(C)n1c(=S)[nH]c2scc(-c3cccs3)c2c1=O
- IC50 [19]: 18.2 µM (not active)
- CC50 (Vero): > 40 µM (active)
- IC50 [20]: 13.5 µM (active)
- IC50 [21]: 34 µM (active)

SMILES: O=C1CC(c2ccco2)CC(=O)C1=CNc1ccc(Br)cc1 (configuration not stated)
- IC50 [2]: > 100 µM (active)

SMILES: Cn1ncc2c(NCc3ccccc3)ncnc21
- IC50 [1]: > 31 µM (not active)

SMILES: CC(C)CNC(=O)COC(=O)c1ccccc1OCC(=O)Nc1ccc(Br)cc1
- EC50 [11]: > 79.4 µM (not active)
- EC50 [12]: > 79.4 µM (not active)
- EC50 [13]: > 79.4 µM (not active)

SMILES: c1ccc2c(c1)CC/C2=N/Nc1nc2ccccc2[nH]1
- EC50 [11]: > 79.4 µM (not active)
- EC50 [12]: > 79.4 µM (not active)
- EC50 [13]: > 79.4 µM (not active)
- EC50 [5]: 2.6 µM (active)
- EC50 [6]: > 30 µM (not active)

SMILES: CN(C)CCCNc1ccc(-c2nnc(O)c3ccccc23)cc1[N+](=O)[O-]
- IC50 (H9c2): 13.9 µM (active)
- AC50 [8]: 20.5 µM (active)

Reference: ChEMBL document CHEMBL1201862, “PubChem BioAssay data set” (2004)
